Like-named read-outs stand apart in the source and are kept apart here.
Columns and labels:
human NEU3 = human NEU3 (Homo sapiens (Human), UniProt Q9UQ49); assay: human NEU3 sialidase inhibition
Excerpt: (§1) Enzymatic activity may be defined as inhibited if the rate measured by the Michaelis-Menten equation in an in vitro assay using a substrate with a terminal sialic acid is inhibited by at least 50%. More specifically, a human sialidase inhibitor may be a compound that inhibits the rate of at least one human sialidase by at least 50% as measured by the Michaelis-Menten equation in an in vitro assay using the fluorometric substrate 4MU-NANA [2′-(4-Methylumbelliferyl)-α-D-N-acetylneuraminic acid.
(§2) In general, sialidase activity, including human sialidase activity, may be assessed at 37° C. in the presence of buffers ranging in pH from 3.7 to 7.4. […] Bovine serum albumin (BSA) is added to the buffer at a concentration of 100 ug/ml. Sialidase at a final concentration of 300 ng/ml is then added to the buffer. A sialidase inhibitor is then added to the mixture at a series of final concentrations. The reaction mixture is incubated for 30 minutes to allow the inhibitor to bind the sialidase. The fluorometric substrate 4MU-NANA [2′-(4-Methylumbelliferyl)-α-D-N-acetylneuraminic acid sodium salt hydrate is then added at a final concentration of 200 μM. […] The total volume of each reaction mixture is 0.1 ml. The cleavage of 4MU-NANA is then monitored by fluorescence every 20 minutes for 5 hours with excitation light at 360 nm and the fluorescence emission at 460 nm.
(§3) The fluorescence in the absence of sialidases is subtracted from all readings.

human NEU4 = human NEU4 (Homo sapiens (Human), UniProt Q8WWR8); assay: human NEU4 sialidase inhibition
Excerpt: as §1, §2, §3

human NEU1 = human NEU1 (Homo sapiens (Human), UniProt Q99519); assay: human NEU1 sialidase inhibition
Excerpt: as §1, §2, §3

human NEU2 = human NEU2 (Homo sapiens (Human), UniProt Q9Y3R4); assay: human NEU2 sialidase inhibition
Sequence of human NEU2 (Q9Y3R4 whole entry): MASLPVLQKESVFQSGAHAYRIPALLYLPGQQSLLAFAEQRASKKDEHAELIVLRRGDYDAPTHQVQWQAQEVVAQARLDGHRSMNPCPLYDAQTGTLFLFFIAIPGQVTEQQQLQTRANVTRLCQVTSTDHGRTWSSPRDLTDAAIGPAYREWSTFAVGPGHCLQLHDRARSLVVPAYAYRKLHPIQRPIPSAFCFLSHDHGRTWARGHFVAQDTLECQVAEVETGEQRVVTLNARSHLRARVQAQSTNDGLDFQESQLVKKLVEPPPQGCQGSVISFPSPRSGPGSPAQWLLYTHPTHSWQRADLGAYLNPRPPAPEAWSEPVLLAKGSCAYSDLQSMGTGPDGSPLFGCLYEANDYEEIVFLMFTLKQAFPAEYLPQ
Excerpt: as §1, §2, §3

human PBMC = assay: fibrocyte formation in human PBMC, serum-free medium; format: cell-based; conditions: 5 days; 100 ng/ml sialidase, 10 μg/ml DANA or 1 μg/ml SAP
Experimental: Human peripheral blood was collected from healthy adult volunteers who gave written consent and with specific approval from the Texas A&M University human subjects Institutional Review Board. Peripheral blood mononuclear cells (PBMC) were isolated from blood using Ficoll-Paque Plus (GE Healthcare Biosciences, Piscataway, NJ). Human PBMC were incubated in serum-free medium (FibroLife basal media (LM-0001, Lifeline Cell Technology, Walkersville, MD), supplemented with 10 mM HEPES (Sigma-Aldrich, St. Louis, MO), 1x non-essential amino acids (Sigma-Aldrich), 1 mM sodium pyruvate (Sigma-Aldrich), 2 mM glutamine (Invitrogen, Carlsbad, CA), 100 U/ml penicillin, 100 μg/ml streptomycin (Sigma-Aldrich), and 1x ITS-3 (Sigma-Aldrich) in the presence of absence of 100 ng/ml recombinant human sialidases (Origene, Rockville MD), 10 μg/ml DANA (Calbiochem, San Diego, CA), or 1 μg/ml human SAP (Calbiochem). After 5 days, fibrocytes were counted, and results are presented in FIG. 5.

[1] = read-out: NEU1 IC50, human NEU1
[2] = read-out: NEU3 IC50, human NEU3
[3] = read-out: NEU4 IC50, human NEU4
[4] = read-out: NEU2 IC50, human NEU2

Sequence of human NEU3 (Q9UQ49 whole entry): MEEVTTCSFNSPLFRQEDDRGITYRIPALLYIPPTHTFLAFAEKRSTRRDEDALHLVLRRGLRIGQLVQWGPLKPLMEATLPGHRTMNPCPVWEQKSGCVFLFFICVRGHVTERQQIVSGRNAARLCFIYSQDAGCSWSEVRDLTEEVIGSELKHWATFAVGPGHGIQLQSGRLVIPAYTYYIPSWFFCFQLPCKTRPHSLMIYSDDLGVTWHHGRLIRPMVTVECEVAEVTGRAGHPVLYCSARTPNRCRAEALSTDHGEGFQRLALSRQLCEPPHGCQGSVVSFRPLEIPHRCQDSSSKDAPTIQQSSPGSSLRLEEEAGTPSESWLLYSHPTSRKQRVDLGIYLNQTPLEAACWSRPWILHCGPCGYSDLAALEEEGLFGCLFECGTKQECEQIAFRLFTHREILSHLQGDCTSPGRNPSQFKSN
Sequence of human NEU4 (Q8WWR8 whole entry): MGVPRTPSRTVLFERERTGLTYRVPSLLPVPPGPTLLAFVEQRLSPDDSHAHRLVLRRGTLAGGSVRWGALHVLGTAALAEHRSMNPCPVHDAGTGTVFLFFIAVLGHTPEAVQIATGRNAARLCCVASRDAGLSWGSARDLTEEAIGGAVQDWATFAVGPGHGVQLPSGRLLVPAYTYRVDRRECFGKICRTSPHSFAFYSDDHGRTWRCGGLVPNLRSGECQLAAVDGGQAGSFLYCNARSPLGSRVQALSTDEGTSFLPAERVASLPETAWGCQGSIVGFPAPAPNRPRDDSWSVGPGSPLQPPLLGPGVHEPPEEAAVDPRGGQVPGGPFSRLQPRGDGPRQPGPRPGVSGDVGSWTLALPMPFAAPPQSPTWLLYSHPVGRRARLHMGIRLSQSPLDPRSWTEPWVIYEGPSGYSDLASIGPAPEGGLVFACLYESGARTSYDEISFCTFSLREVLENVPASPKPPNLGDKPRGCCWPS

Compound `CC(=O)N[C@@H]1C(N=[N+]=[N-])C=C(C(=O)O)OC1CNNc1ccccc1` (some centres unmarked) [Compound 43] has an IC50 (human NEU3; NEU3 IC50, human NEU3) of 20 ± 8 µM.
In the case of `CC(=O)N[C@@H]1C(O)C=C(C(=O)O)OC1CNNCc1ccc(-c2ccccc2)cc1` (some centres unmarked) [Compound 47], the IC50 (human NEU3; NEU3 IC50, human NEU3) is reported as 70 ± 20 µM and the IC50 (human NEU4) is reported as 200 ± 20 µM.
Compound `CC(=O)N[C@H]1[C@H]([C@@H](O)[C@@H](O)CNC(=O)c2ccccc2)OC(C(=O)O)=C[C@@H]1O` [Compound 3] has an IC50 (human NEU1; [1]) of 13 µM, an IC50 (human NEU3; [2]) of 320 µM and an IC50 (human NEU4; [3]) of 810 µM.
In the case of `CCOc1cn(C[C@@H](O)[C@@H](O)[C@@H]2OC(C(=O)O)=C[C@H](O)[C@H]2NC(C)=O)nn1` [Compound 18], the IC50 (human NEU3; [2]) is reported as 300 ± 200 µM.
With `CC(=O)N[C@@H]1[C@@H](O)C=C(C(=O)O)C[C@H]1OCC(O)CO` (some centres unmarked) [Compound 14] the Ki (human NEU2) was 1.4 mM.
For `CC(=O)N[C@H]1C([C@@H](O)[C@@H](O)Cn2cc(CO)nn2)OC(C(=O)O)=C[C@@H]1O` (some centres unmarked) [Compound 54], the IC50 (human NEU1; [1]) was over 1000 µM and the IC50 (human NEU3; [2]) was 80 ± 10 µM.
`CCCCCCc1cn(C[C@@H](O)[C@@H](O)[C@@H]2OC(C(=O)O)=C[C@H](O)[C@H]2NC(C)=O)nn1` [Compound 17] gave an IC50 (human NEU3; [2]) of 23 ± 4 µM.
Compound `CCC(CC)O[C@@H]1CC(C(=O)O)C=C(n2cc([C@]3(O)CCC4C5CCc6cc(O)ccc6C5CC[C@@]43C)nn2)[C@H]1NC(C)=O` (some centres unmarked) [Compound 29] has an IC50 (human NEU3; NEU3 IC50, human NEU3) of 350 ± 100 µM and an IC50 (human NEU4) of 800 ± 400 µM.
In the case of `CC(=O)N[C@@H]1C(N)C=C(C(=O)O)OC1CNc1ccccc1` (some centres unmarked) [Compound 44], the IC50 (human NEU3; NEU3 IC50, human NEU3) is reported as 540 ± 30 µM.
Compound `CC(=O)N[C@@H]1C(O)C=C(C(=O)O)OC1C(O)C(O)CN=[N+]=[N-]` (some centres unmarked) [Compound 48] has an IC50 (human NEU1) of 620 ± 10 µM, an IC50 (human NEU3; NEU3 IC50, human NEU3) of 19.7 ± 2.3 µM and an IC50 (human NEU4) of 60 ± 20 µM.
`CC(=O)N[C@@H]1[C@@H](O)C=C(C(=O)O)C[C@H]1OCC(C)C` [Compound 12] gave a Ki (human NEU2) of 0.88 mM.
Compound `CC(=O)N[C@H]1[C@H]([C@@H](O)[C@@H](O)CNC(=O)C2CC2)OC(C(=O)O)=C[C@@H]1O` [Compound 5] has an IC50 (human NEU1; [1]) of 680 µM, an IC50 (human NEU3; [2]) of over 1000 µM and an IC50 (human NEU4; [3]) of 825 µM.
`CCCC(=O)NC[C@H](O)[C@H](O)[C@@H]1OC(C(=O)O)=C[C@H](O)[C@H]1NC(C)=O` [Compound 6] showed an IC50 (human NEU1; [1]) of 32 µM and an IC50 (human NEU3; [2]) of over 1000 µM.
Compound `CC(=O)N[C@@H]1C(N)C=C(C(=O)O)OC1CNc1ccccc1` (some centres unmarked) [Compound 45] has an IC50 (human NEU2; NEU2 IC50, human NEU2) of 100 ± 13 µM and an IC50 (human NEU3; NEU3 IC50, human NEU3) of 370 ± 80 µM.
For `CC(=O)N[C@H]1[C@H]([C@H](O)[C@H](O)Cn2cc(CO)nn2)OC(C(=O)O)=C[C@@H]1O` [Compound 21], the IC50 (human NEU3; [2]) was 300 ± 400 µM.
For `O=C(Cn1ccnn1)N[C@H]1[C@H]([C@H](O)[C@H](O)CO)OC(C(=O)O)=C[C@@H]1O` [Compound 25], the Ki (human NEU3) was 21 ± 8 µM.
In the case of “SAP: human SAP (Calbiochem), serum amyloid protein”, the “fibrocyte formation / differentiation” value (human PBMC) is reported as “No fibrocytes were detected”.
Compound `CC(=O)N[C@H]1[C@H]([C@H](O)[C@H](O)Cn2cc(-c3ccccc3)nn2)OC(C(=O)O)=C[C@@H]1O` [Compound 16] has an IC50 (human NEU3; [2]) of 20 ± 10 µM.
Compound `CC(=O)N[C@H]1[C@H]([C@H](O)[C@H](O)CN=[N+]=[N-])OC(C(=O)O)=C[C@@H]1O` [Compound 32] has an IC50 (human NEU2; [4]) of 31 ± 6 µM.
`[N-]=[N+]=NC[C@@H](O)[C@@H](O)[C@@H]1OC(C(=O)O)=C[C@H](O)[C@H]1NC(=O)CO` [Compound 33] was tested, and the IC50 (human NEU2; [4]) was 190 µM.
`CC(=O)N[C@H]1[C@H]([C@@H](O)[C@@H](O)CNC(=O)C2CCCC2)OC(C(=O)O)=C[C@@H]1O` [Compound 4] gave an IC50 (human NEU1; [1]) of 135 µM, an IC50 (human NEU3; [2]) of over 1000 µM and an IC50 (human NEU4; [3]) of over 1000 µM.
Compound `CCCCC(=O)NC[C@H](O)[C@H](O)[C@@H]1OC(C(=O)O)=C[C@H](O)[C@H]1NC(C)=O` [Compound 8] has an IC50 (human NEU4; [3]) of over 1000 µM.
